From patent publication US9102656B2, “Use of rosuvastatin lactols as medicaments” (RedX Pharma Limited, priority 2009, dated 2015) come the findings set out here.

For orientation: IC50 means the point on the concentration scale where inhibition reaches its midpoint. High values mean a need for much substance, low ones inhibition by little substance.

Structures are written as SMILES. Where a name gives a salt, the structure may show the parent alone.

The target in test [1] is HMG-CoA reductase (Homo sapiens (Human), UniProt P04035). Kind of test: HMG-CoA Reductase assay kit (spectrophotometric NADPH absorbance at 340 nm). The note with it: inhibitor concentrations varied from 0 nM to 50 nM; 37° C. In kind it is biochemical. As to the method: All assays were carried out in a reaction buffer containing […] KxPO4 at pH 7.2, 1 mM EDTA, 500 mM KCl and 1 mg/ml BSA. The concentrations of NADPH and HMG-CoA were both 200 μM. […] Absorbance readings were then taken every 20 seconds for 600 seconds. […] After these were identified, assays were carried out varying their concentrations from 0 nM to 50 nM allowing IC50 values to be calculated.
Add a buffer to all samples. • b. […] Add the reconstituted NADPH to all samples. • d. Add Substrate Solution (HMG-CoA) to all samples. • e. […] Mix the samples thoroughly. 3. The kinetics programme was started immediately.

Test [2] deals with plasma triglycerides. Kind of test: Rat plasma triglyceride levels after 3 or 5 days BID oral treatment. The note with it: male SD rats, 25 mg/kg po BID for 3 or 5 days, plasma 16 hours after last dose. Type of test: in vivo. On the procedure:
The measurement of the change in rat plasma triglyceride levels is considered to be a fair test for determining HMG CoA reductase activity.
112 male SD rats (Harlan) were housed in groups of 6 under a 12 h light dark cycle (lights on 07.00 h) with free access to food (normal laboratory chow) and water. Animals between 148-183 g were allocated to treatment groups of 8 balanced by body weight and treatments were balanced across cages.
Four rosuvastatin analogues were made up in 10% PEG300/10% cremophor/80% methyl cellulose (0.5%) (vehicle 1) to make a 5 mg/mL solution. The rosuvastatin compounds used were:
Rosuvastatin Lactol n-propyl acetal (diastereomeric ratio 2/1) (BPL001); Rosuvastatin lactol n-propyl acetal nicotinoyl ester (diastereomeric ratio 2/1) (BPL002); Rosuvastatin lactol iso-propyl acetal benzyl ether (BPL003); and Rosuvastatin lactol methyl acetal nicotinoyl ester (diastereomeric ratio 2/1) (BPL004).
Rosuvastatin was formulated in 0.5% Tween in 0.5% methyl cellulose (vehicle 2) at 5 mg/kg as a suspension.
Rats were orally dosed with vehicle 1, one of the four rosuvastatin analogues in vehicle 1 (25 mg/kg), vehicle 2 or rosuvastatin in vehicle 2 (25 mg/kg po), BID for 3 or 5 days. […]
Data for each time-point were analysed by 1-way ANOVA and post-hoc Dunnett's test.

Sequence of HMG-CoA reductase (P04035 340-888): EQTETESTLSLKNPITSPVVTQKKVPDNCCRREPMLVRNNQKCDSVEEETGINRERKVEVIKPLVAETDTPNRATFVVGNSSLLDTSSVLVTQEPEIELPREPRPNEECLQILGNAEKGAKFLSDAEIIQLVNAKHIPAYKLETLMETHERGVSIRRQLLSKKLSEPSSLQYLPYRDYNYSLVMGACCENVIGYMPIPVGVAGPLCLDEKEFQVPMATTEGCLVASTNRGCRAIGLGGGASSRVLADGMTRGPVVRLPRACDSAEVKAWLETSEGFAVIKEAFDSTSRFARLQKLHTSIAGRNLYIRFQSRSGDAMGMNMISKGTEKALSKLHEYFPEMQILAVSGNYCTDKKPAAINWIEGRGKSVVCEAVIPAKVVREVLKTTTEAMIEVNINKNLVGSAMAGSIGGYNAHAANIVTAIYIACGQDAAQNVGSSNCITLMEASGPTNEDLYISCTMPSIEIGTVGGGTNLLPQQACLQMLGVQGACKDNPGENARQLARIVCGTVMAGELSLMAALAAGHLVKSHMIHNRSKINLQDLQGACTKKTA

Turning to `COC1C[C@H](OC(=O)c2cccnc2)C[C@@H](/C=C/c2c(-c3ccc(F)cc3)nc(N(C)S(C)(=O)=O)nc2C(C)C)O1` (stereo partly drawn), in test [1], the IC50 was less than 1 nM.
Compound `CC(C)c1nc(N(C)S(C)(=O)=O)nc(-c2ccc(F)cc2)c1/C=C/[C@@H](O)C[C@@H](O)CC(=O)O` [Rosuvastatin calcium salt] gave an IC50 in test [1] of 4 nM.
Consider `CC(C)c1nc(N(C)S(C)(=O)=O)nc(-c2ccc(F)cc2)c1C=CC(O)CC(O)CC(=O)O` (stereo not drawn) [rosuvastatin, 7-[4-(4-fluorophenyl)-6-(1-methylethyl)-2-(methyl-methylsulfonyl-amino)-pyrimidin-5-yl]-3,5-dihydroxy-hept-6-enoic acid], for which, in test [2], the “effect on plasma triglycerides” value is listed as “marked reduction in plasma triglycerides”.
